The test system of one test is E. coli IH3080 (K1:O18). Put plainly: Well diffusion growth inhibition on LB agar plates (direct antibacterial activity). It counts as cell-based, Escherichia coli. The method, boiled down: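 Growth inhibition of encapsulated E. coli IH3080 (K1:O18) was measured by well diffusion on LB agar plates. A suspension of about 10^8 cells/ml in 0.9% NaCl, made from an overnight LB agar culture, was spread over the plates and the excess removed. Once dry, five 2 mm wells were drilled per plate and test solutions added, with 0.9% NaCl as control. After 18 h at 37° C, inhibition zone diameters were measured and converted to surface areas in square mm.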
Background: In agar diffusion tests the substance spreads into inoculated agar from a disc or well.

The test system of test [1] is Acinetobacter baumannii ATCC 19606. The description is as above. Format: cell-based. To be noted: A. baumannii ATCC 19606. The method, then:
(§1) From an overnight-grown culture of IH3080 on LB agar, a suspension of approx. 10^8 cells/ml was prepared in 0.9% NaCl. Aliquots of this suspension were then pipetted on the agar plates and the plates were gently shaken to spread the suspension evenly on the entire surface of the plate. Thereafter, the unabsorbed part of the suspension was removed by using a Pasteur pipette. After the surface had dried, small wells (diameter, 2 mm) were drilled on the plates (five wells per plate) by using a sterile sharp-edged narrow metal tube, single-use pipette tip, and vacuum suction. Samples (4 μl and 10 μl) of the peptide solution in 0.9% NaCl (at concentrations of 1 μg/ml and 0.1 μg/ml) were then pipetted to the wells and the sample fluids were allowed to absorb. Controls included 0.9% NaCl solution without the compound to be tested. The plates were then incubated for 18 h at 37° C. whereafter the diameters of growth inhibition zones around each well were measured; the diameter of the well itself was not reduced. Finally, the diameters were converted to surface areas of growth inhibition (in square mm).
(§2) Direct antibacterial activity of twelve NAB compounds against Acinetobacter baumannii ATCC 19606 and Pseudomonas aeruginosa ATCC 27853 was tested by using the susceptibility determination method described in Example 2. Five compounds (NAB7062, NAB734, NAB737, NAB739, and NAB740) had notable activity against A. baumannii. […] The antibacterial activity of NAB739 and NAB740 were as strong as or even stronger than that of polymyxin B.

The subject of test [2] is Pseudomonas aeruginosa ATCC 27853. The description is as above. It counts as cell-based. To be noted: Ps. aeruginosa ATCC 27853. On the procedure:
as §1, §2

The subject of another test is E. coli ATCC25922. The description is as above. Format: cell-based, Escherichia coli. The method, then: as §1, with “Samples (4 μl and 10 μl) of the peptide solution in 0.9% NaCl (at concentrations of 1 μg/ml and 0.1 μg/ml) were then pipetted to the wells and the sample fluids were allowed to absorb.” left out
(§3) The susceptibility of eleven Gram-negative bacterial strains (nine different species) to NAB734 and polymyxin B was compared by using the susceptibility determination method described in Example 2. The strains included those belonging to the species of Serratia marcescens and Proteus mirabilis, both species generally known to be resistant to polymyxin. Furthermore, the susceptibility determination was also performed by using the Gram-positive bacterium, Staphylococcus aureus, also generally known to be polymyxin-resistant. Ten of the strains originated from ATCC (American Type Culture Collection, Manassas, Va., U.S.A.), and one from CCUG (Culture Collection of University of Gothenburg, Sweden). The source of E. coli IH3080 has been described in Example 2. Polymyxin B sulfate was from Sigma-Aldrich (St. Louis, Mo., USA).

The test system of the next test is K. pneumoniae ATCC13883. The description is as above. Format: cell-based, Klebsiella pneumoniae. The method, then:
as §1, §3

A further test has as its system K. pneumoniae CCUG45421. The description is as above. It counts as cell-based, Klebsiella pneumoniae. The method, then:
as §1, with “Samples (4 μl and 10 μl) of the peptide solution in 0.9% NaCl (at concentrations of 1 μg/ml and 0.1 μg/ml) were then pipetted to the wells and the sample fluids were allowed to absorb.” left out
as §3

Another test deals with K. oxytoca ATCC13182. Described as above. It counts as cell-based, Klebsiella oxytoca. On the procedure:
as §1, §3

A further test relates to E. cloacae ATCC23355. The description is as above. Format: cell-based, Enterobacter cloacae. On the procedure: as §1, §3
In another test the test system is C. freundii ATCC8090. The description is as above. It counts as cell-based, Citrobacter freundii. On the procedure:
as §1, §3

A further test has as its system S. marcescens ATCC8100. The description is as above. It counts as cell-based, Serratia marcescens. On the procedure:
as §1, §3

The subject of a further test is P. mirabilis ATCC29906. Described as above. It counts as cell-based, Proteus mirabilis. On the procedure: as §1, §3
The test system of the next test is S. aureus ATCC 25923. Described as above. Format: cell-based, Staphylococcus aureus. On the procedure: as §1, with “Samples (4 μl and 10 μl) of the peptide solution in 0.9% NaCl (at concentrations of 1 μg/ml and 0.1 μg/ml) were then pipetted to the wells and the sample fluids were allowed to absorb.” left out
as §3

The subject of another test is E. coli IH3080. Put plainly: Sensitization to rifampin: well diffusion growth inhibition on LB plates containing rifampin. To be noted: 4 μg of compound. Format: cell-based, Escherichia coli.
Another test deals with A. baumannii ATCC 19606. Described as above. To be noted: 4 μg of compound. Format: cell-based, Acinetobacter baumannii.
For test [3], the system named is Ps. aeruginosa ATCC 27853. Described as above. To be noted: 4 μg of compound. It counts as cell-based, Pseudomonas aeruginosa.

Several values for one entry are separate records, joined by “and”; a condition that tells them apart may be missing. Identical values can stand only once.

On to “OA-Thr-DSer-cy[Dab-Dab-DPhe-Thr-Dab-Dab-Thr-] [NAB 734]”, for which the “Antibacterial activity (growth inhibition area around a well)” value was 113 square millimeters in the test on E. coli IH3080 (K1:O18) (4 μg of compound per well); 177 square millimeters and 154 square millimeters in the test on E. coli IH3080 (K1:O18) (10 μg of compound per well); 38 square millimeters and 57 square millimeters in test [1] (4 μg per well); 95 square millimeters and 79 square millimeters in [1] (10 μg per well); 13 square millimeters in test [2] (4 μg per well); 50 square millimeters in test [2] (10 μg per well). The “Antibacterial activity (growth inhibition area around a well)” value in the test with E. coli ATCC25922 (4 μg per well) is reported as 133 square millimeters; in the test with E. coli ATCC25922 (10 μg per well) it was 177 square millimeters; in the test on K. pneumoniae ATCC13883 (4 μg per well) it was 64 square millimeters; with K. pneumoniae ATCC13883 (10 μg per well), 113 square millimeters; in the test with K. pneumoniae CCUG45421 (4 μg per well) it was 64 square millimeters; in the test with K. pneumoniae CCUG45421 (10 μg per well), 104 square millimeters. Also, the “Antibacterial activity (growth inhibition area around a well)” value is listed as 95 square millimeters in the test on K. oxytoca ATCC13182 (4 μg per well); 143 square millimeters in the test on K. oxytoca ATCC13182 (10 μg per well); 133 square millimeters with E. cloacae ATCC23355 (4 μg per well); 177 square millimeters in the test with E. cloacae ATCC23355 (10 μg per well); 133 square millimeters in the test on C. freundii ATCC8090 (4 μg per well); 177 square millimeters in the test on C. freundii ATCC8090 (10 μg per well). In addition, the “Antibacterial activity (growth inhibition area around a well)” value in the test on S. marcescens ATCC8100 (4 μg per well), in the test with S. marcescens ATCC8100 (10 μg per well), in the test on P. mirabilis ATCC29906 (4 μg per well), in the test with P. mirabilis ATCC29906 (10 μg per well), in the test with S. aureus ATCC 25923 (4 μg per well) and in the test with S. aureus ATCC 25923 (10 μg per well) was 0 square millimeters in each case. For the same substance, the “Antibacterial activity in the presence of rifampin (growth inhibition area around a well)” value in the test with E. coli IH3080 (rifampin 0 μg/ml) stood at 113 square millimeters; with E. coli IH3080 (rifampin 0.1 μg/ml) it was 154 square millimeters; in the test on E. coli IH3080 (rifampin 1.0 μg/ml), 201 square millimeters; in the test on A. baumannii ATCC 19606 (rifampin 0 μg/ml), 38 square millimeters; in the test with A. baumannii ATCC 19606 (rifampin 0.1 μg/ml), 201 square millimeters; with A. baumannii ATCC 19606 (rifampin 0.3 μg/ml), 283 square millimeters. The figures for the “Antibacterial activity in the presence of rifampin (growth inhibition area around a well)” value in test [3] (rifampin 0 μg/ml), in [3] (rifampin 0.1 μg/ml) and in test [3] (rifampin 0.3 μg/ml) were 13 square millimeters, 20 square millimeters and 20 square millimeters, respectively.

Regarding “Polymyxin B sulfate [reference compound]”, the “Antibacterial activity (growth inhibition area around a well)” value with E. coli IH3080 (K1:O18) (4 μg of compound per well) is on record as 95 square millimeters; with E. coli IH3080 (K1:O18) (10 μg of compound per well), 133 square millimeters; in test [1] (4 μg per well), 113 square millimeters; in test [1] (10 μg per well) it was 154 square millimeters; in test [2] (4 μg per well), 95 square millimeters; in [2] (10 μg per well), 133 square millimeters. Further, the “Antibacterial activity (growth inhibition area around a well)” value in the test with E. coli ATCC25922 (4 μg per well) was found to be 95 square millimeters; in the test on E. coli ATCC25922 (10 μg per well) it was 133 square millimeters; in the test on K. pneumoniae ATCC13883 (4 μg per well) it was 79 square millimeters; in the test on K. pneumoniae ATCC13883 (10 μg per well), 113 square millimeters; in the test on K. pneumoniae CCUG45421 (4 μg per well), 95 square millimeters; in the test with K. pneumoniae CCUG45421 (10 μg per well) it was 133 square millimeters. The “Antibacterial activity (growth inhibition area around a well)” value with K. oxytoca ATCC13182 (4 μg per well) worked out at 79 square millimeters; in the test with K. oxytoca ATCC13182 (10 μg per well), 104 square millimeters; in the test with E. cloacae ATCC23355 (4 μg per well) it was 95 square millimeters; in the test on E. cloacae ATCC23355 (10 μg per well), 143 square millimeters; with C. freundii ATCC8090 (4 μg per well), 95 square millimeters; in the test with C. freundii ATCC8090 (10 μg per well), 154 square millimeters. For the same substance, the “Antibacterial activity (growth inhibition area around a well)” value with S. marcescens ATCC8100 (4 μg per well), with S. marcescens ATCC8100 (10 μg per well), with P. mirabilis ATCC29906 (4 μg per well), in the test with P. mirabilis ATCC29906 (10 μg per well), with S. aureus ATCC 25923 (4 μg per well) and with S. aureus ATCC 25923 (10 μg per well) was 0 square millimeters throughout.

On to “Polymyxin B nonapeptide [reference compound]”, for which the “Antibacterial activity (growth inhibition area around a well)” value in the test with E. coli IH3080 (K1:O18) (4 μg of compound per well) came out at 0 square millimeters; in the test on E. coli IH3080 (K1:O18) (10 μg of compound per well), 0 square millimeters; in [1] (4 μg per well), 0 square millimeters; in test [1] (10 μg per well), 0 square millimeters; in test [2] (4 μg per well), 113 square millimeters; in test [2] (10 μg per well), 177 square millimeters. Further, the “Antibacterial activity in the presence of rifampin (growth inhibition area around a well)” value in the test with E. coli IH3080 (rifampin 0 μg/ml) was found to be 0 square millimeters; in the test on E. coli IH3080 (rifampin 0.1 μg/ml), 20 square millimeters; in the test with E. coli IH3080 (rifampin 1.0 μg/ml) it was 113 square millimeters; in the test on A. baumannii ATCC 19606 (rifampin 0 μg/ml) it was 0 square millimeters; in the test with A. baumannii ATCC 19606 (rifampin 0.1 μg/ml), 133 square millimeters; in the test on A. baumannii ATCC 19606 (rifampin 0.3 μg/ml) it was 154 square millimeters. Also, the figures for the “Antibacterial activity in the presence of rifampin (growth inhibition area around a well)” value in [3] (rifampin 0 μg/ml), in test [3] (rifampin 0.1 μg/ml) and in [3] (rifampin 0.3 μg/ml) were 113 square millimeters, 113 square millimeters and 154 square millimeters, respectively.

The record behind these values is US9067974B2, “Polymyxin derivatives and uses thereof” (priority 2006, dated 2015).
